According to PMC8834685 (International Journal of Molecular Sciences, 2022):

B1: DmUCP4A (Drosophila melanogaster) (protein)
chain: MAAKTDESSPAVASSTSSNPAPSSGRHQLRPVKFDYADSFACTYIVSVVAASIAELATYPLDLTKTRLQIQGEGAAHSAGKSNMQYRGMVATAFGIAREEGALKLWQGVTPALYRHVVYSGVRICSYDLMRKEFTQNGTQALPVWKSALCGVTAGAVAQWLASPADLVKVQIQMEGRRRLMGEPPRVHSAGHAFRQIVQRGGIKGLWKGSIPNVQRAALVNLGDLTTYDTIKHLIMNRLQMPDCHTVHVLASVCAGFVAAIMGTPADVVKTRIMNQPTDENGRGLLYRGSVDCLRQTVSKEGFVALYKGFLPCWIRMAPWSLTFWLSFEQIRKMIGASGY

The molecules below were run against T1, DmUCP4A (Drosophila melanogaster, UniProt Q9VX14) (assay: inhibition of […]aspartate/aspartate exchange in proteoliposomes). Settings: 0.3 mM external [14C]aspartate, 10 mM internal aspartate, pH 6.5, 25 °C, 1 min.
T1 construct: gene Ucp4A
T1 sequence (Q9VX14 1-340): B1 chain
Assay type: biochemical

Molecule | % inhibition at 10 mM
c1ccc(-c2ccnc3c2ccc2c(-c4ccccc4)ccnc23)cc1 [bathophenanthroline] | The activity of DmUCP4A was strongly inhibited by BAT, PLP, and tannic acid
N[C@@H](CS(=O)O)C(=O)O [cysteine sulfinate] | to a much lower extent by oxalate, maleate, 2-oxoglutarate, and cysteine sulfinate
Cc1ncc(COP(=O)(O)O)c(C=O)c1O [pyridoxal-5′-phosphate] | The activity of DmUCP4A was strongly inhibited by BAT, PLP, and tannic acid
CCCCC(C(=O)O)C(=O)O [butylmalonate] | butylmalonate, and phenylsuccinate
O=C(O)CC(C(=O)O)c1ccccc1 (stereo not drawn) [phenylsuccinate] | butylmalonate, and phenylsuccinate
O=C(O)/C=C\C(=O)O [maleate] | to a much lower extent by oxalate, maleate, 2-oxoglutarate, and cysteine sulfinate
O=C(O)CCC(=O)C(=O)O [2-oxoglutarate] | to a much lower extent by oxalate, maleate, 2-oxoglutarate, and cysteine sulfinate

Same assay, conditions: 0.3 mM external [14C]aspartate, 10 mM internal aspartate, pH 6.5, 25 °C, 1 min; added externally with labelled aspartate as potential competitor

Molecule | % inhibition at 10 mM
O=C(O)C(=O)O [oxalate] | to a much lower extent by oxalate, maleate, 2-oxoglutarate, and cysteine sulfinate

Each molecule was assayed on N[C@@H](CC(=O)O)C(=O)O (assay: purified protein). Settings: aspartate/aspartate exchange, 10 mM internal aspartate, pH 6.5, 25 °C, labelled compound.

Molecule | Km [µM]
B1 | 229.2 ± 12.64
